From patent US10080757B2 (WISCONSIN ALUMNI RESEARCH FOUNDATION, priority 2016, dated 2018)
Converted amounts (≈) assume the structure as drawn. “Also recorded” adds a separate entry of the source. Where two headings read alike, the source gives them in different places.

What was measured:
M. smegmatis [1] = assay: Microplate Alamar Blue Assay (MIC, liquid culture); type: cell-based; settings: Mycolicibacterium smegmatis
Procedure: The culture was diluted to OD600=˜0.02 in LB liquid media and added to 96-well plates at a final volume of 100 μL, with added inhibitor concentrations in two-fold dilutions. Perimeter wells were filled with sterile water. After 24 hours at 37° C. in a shaking incubator, 10 μL of the Alamar Blue reagent was added to each well. The plate was incubated for an additional 4 hours at 37° C., at which point fluorescence emission at 585 nm was measured using a plate reader. The lowest inhibitor concentration at which 99% or greater growth inhibition was observed was determined to be the MIC.

recombinant MtbUGM = target: T1, recombinant MtbUGM (Mycobacterium tuberculosis, UniProt P9WIQ1); assay: biochemical; settings: for inhibition at 100 µM: read-out: % inhib MtbUGM (100 μM)
T1 construct: made in house

[2] = Aggregation by Dynamic Light Scattering (DLS); type: physicochemical; settings: for Aggregates observed?: 50 mM sodium phosphate buffer, 1% DMSO; for Aggregation by DLS: concentrations up to 50 μM
Procedure: A representative subset of the compounds (1, 2, and 4) were evaluated for aggregation by Dynamic Light Scattering (DLS), see Table 1. Samples for DLS analysis were prepared in 50 mM sodium phosphate buffer from DMSO inhibitor stocks, at a final DMSO concentration of 1%, and a range of final concentrations of inhibitor.

M. smegmatis [3] = assay: Agar disk diffusion assay; parameters: zone of inhibition: dose or concentration left out as unconfirmed; settings: for zone of inhibition: Mycolicibacterium smegmatis, read-out: Inhibition zone
Procedure: M. smegmatis was grown to saturation over 48 hours at 37° C. in Middlebrook 7H9 media with Albumin Dextrose Catalase (ADC) enrichment and 0.05% Tween80. The culture was diluted to OD600=˜0.2 in LB liquid media and 100 μL of dilute culture was spread onto LB agar plates, then allowed to soak into the agar for 1 hour at room temperature. Sterile disks (3 mm diameter) were impregnated with a solution of inhibitor in DMSO (1.5 μL) and placed on top of the bacterial lawn. […] The plates were incubated for 72 hours at 37° C., at which point a lawn of bacteria was visible. Zones of inhibition were measured as the average diameter of the region around a cloning disk where bacterial growth was not visible. For each disk, three diameter measurements were taken and averaged.

C. elegans [4] = assay: C. elegans growth and proliferation; type: in vivo; settings: for Prevention of C. elegans maturation to adulthood and eventual proliferation: 100 μM; for Effective inhibitor of C. elegans growth at 250 μM / Inhibition of C. elegans proliferation: 250 μM
CeUGM = CeUGM inhibition; type: biochemical, C. elegans
C. elegans [5] = assay: C. elegans growth and proliferation; type: in vivo; settings: threshold below which proliferation occurs at decreased rate
Source text: As concentration decreases, each of these compounds reaches a threshold where they no longer prevent worm proliferation, but rather cause retarded growth and development. The concentration that appears to be this threshold is reported above. Below this concentration, C. elegans growth and proliferation occur, but at a decreased rate with visible ill effects to the animal.

C. elegans [6] = assay: Bleach sensitivity assay (time until first rupture); type: in vivo; settings: 50 microM; adult worms
Procedure: Compounds were tested at 50 microM. Adult worms (C. elegans) were chosen for testing and time until first rupture was measured when worms were placed in a bleach, sodium hydroxide solution. […] A graph showing results is provided as FIG. 4. Each treatment group has approximately an n=20. The Thompson Tau technique was used to determine statistical outliers.

[7] = Aggregation by Dynamic Light Scattering (DLS); type: physicochemical; settings: 1% DMSO
[8] = Table 3, liquid media, at least 99% growth inhibition
[9] = 50 μM compound (FIG. 1), read-out: Inhibition of MtbUGM activity
[10] = Table 2, standard deviation, n = 3
[11] = 50 μM, mean of two replicates, read-out: % inhib MtbUGM (50 μM)

T1 sequence (P9WIQ1 whole entry): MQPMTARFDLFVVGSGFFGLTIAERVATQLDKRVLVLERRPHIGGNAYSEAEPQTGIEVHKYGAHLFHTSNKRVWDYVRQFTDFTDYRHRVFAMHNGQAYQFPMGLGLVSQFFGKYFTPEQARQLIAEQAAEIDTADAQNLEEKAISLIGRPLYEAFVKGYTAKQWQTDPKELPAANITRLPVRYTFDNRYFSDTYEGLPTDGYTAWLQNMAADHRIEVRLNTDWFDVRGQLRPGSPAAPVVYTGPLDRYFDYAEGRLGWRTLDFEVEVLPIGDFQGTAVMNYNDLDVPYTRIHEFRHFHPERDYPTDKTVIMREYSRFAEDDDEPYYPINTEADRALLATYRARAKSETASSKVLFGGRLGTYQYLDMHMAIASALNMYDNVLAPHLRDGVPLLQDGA

Row | Structure (SMILES) | MIC (M. smegmatis [1]; [8]) | IC50 (recombinant MtbUGM; [10]) | Aggregates observed? ([2]; Conc. 10 uM) | Aggregates observed? ([2]; Conc. 25 uM) | Aggregates observed? ([2]; Conc. 50 uM) | Aggregates observed? ([2]; Conc. 100 uM) | Aggregation by DLS [2] | zone of inhibition (M. smegmatis [3]) | Effective inhibitor of C. elegans growth at 250 μM (C. elegans [4]; Table 7) | CeUGM % Inhibition at 2.5 μM (CeUGM) | Apparent MIC (μM) to inhibit C. elegans propagation (C. elegans [5]) | Inhibition of C. elegans proliferation (C. elegans [4]) | also measured
1 | O=C(O)C(Cc1ccc(I)cc1)Nc1nc(-c2ccc(Cl)c(Cl)c2)cs1 (centres unmarked) [Compound 1, 2-((4-(3,4-Dichlorophenyl)thiazol-2-yl)amino)-3-(4-iodophenyl)propanoic acid] | 50 µM (≈ 26 µg/mL) | 6 µM | No | No | No | Yes | No aggregation was observed | 5 ± 0.1 mm | No | 69.5 ± 1.2% | – | – | inhibition at 50 µM (recombinant MtbUGM; [9]): > 90%
2 | O=C(NS(=O)(=O)C(F)(F)F)C(Cc1ccc(I)cc1)Nc1nc(-c2ccc(Cl)c(Cl)c2)cs1 (centres unmarked) [Compound 3, 2-((4-(3,4-dichlorophenyl)thiazol-2-yl)amino)-3-(4-iodophenyl)-N-((trifluoromethyl)sulfonyl)propanamide] | 50 µM (≈ 32.5 µg/mL) | 16 ± 10 µM | – | – | – | – | – | 7.7 ± 0.6 mm | Yes | 84.8 ± 2.2% | 100 µM | significantly inhibit | Prevention of C. elegans maturation to adulthood and eventual proliferation (C. elegans [4]): show the ability to prevent C. elegans maturation to adulthood and eventual proliferation
3 | O=C(NS(=O)(=O)c1ccccc1[N+](=O)[O-])C(Cc1ccc(I)cc1)Nc1nc(-c2ccc(Cl)c(Cl)c2)cs1 (centres unmarked) [Compound 9, 2-((4-(3,4-dichlorophenyl)thiazol-2-yl)amino)-3-(4-iodophenyl)-N-((2-nitrophenyl)sulfonyl)propanamide] | 12.5 µM (≈ 8.79 µg/mL) | 2 ± 1 µM | – | – | – | – | – | 5.7 ± 0.1 mm | Yes | 92.1 ± 1.0% | 125 µM | significantly inhibit | –
4 | CS(=O)(=O)NC(=O)C(Cc1ccc(I)cc1)Nc1nc(-c2ccc(Cl)c(Cl)c2)cs1 (centres unmarked) [Compound 2, 2-((4-(3,4-dichlorophenyl)thiazol-2-yl)amino)-3-(4-iodophenyl)-N-(methylsulfonyl)propanamide] | 25 µM (≈ 14.9 µg/mL) | 12 ± 5 µM | No | No | No | No | No aggregation was observed | 7 ± 0.1 mm | Yes | 80.7 ± 1.1% | 100 µM | significantly inhibit | inhibition at 50 µM (recombinant MtbUGM; [9]): > 90%; Time until first rupture in bleach, sodium hydroxide solution (C. elegans [6]): enhances bleach sensitivity significantly; also recorded: statistically significant decrease; Prevention of C. elegans maturation to adulthood and eventual proliferation (C. elegans [4]): show the ability to prevent C. elegans maturation to adulthood and eventual proliferation
5 | O=C(NS(=O)(=O)c1ccccc1)C(Cc1ccc(I)cc1)Nc1nc(-c2ccc(Cl)c(Cl)c2)cs1 (centres unmarked) [Compound 4, 2-((4-(3,4-dichlorophenyl)thiazol-2-yl)amino)-3-(4-iodophenyl)-N-(phenylsulfonyl)propanamide] | 25 µM (≈ 16.5 µg/mL) | 7 ± 2 µM | No | No | No | Yes | No aggregation was observed | 7.3 ± 0.6 mm | Yes | 92.2 ± 0.2% | 250 µM | significantly inhibit | Time until first rupture in bleach, sodium hydroxide solution (C. elegans [6]): enhances bleach sensitivity significantly; also recorded: statistically significant decrease
6 | O=C(O)CC1Sc2nnc(Cc3ccc(Br)cc3)n2N=C1c1ccc(-c2ccccc2)cc1 (centres unmarked) [Compound 25, 2-(6-([1,1′-biphenyl]-4-yl)-3-(4-bromobenzyl)-7H-[1,2,4]triazolo[3,4-b][1,3,4]thiadiazin-7-yl)acetic acid] | – | – | – | – | – | – | – | – | – | – | – | – | MtbUGM activity in presence of compound (in words) (recombinant MtbUGM; 10 μM): completely ablated; inhibition at 10 µM (recombinant MtbUGM; 10 μM, mean of two replicates, read-out: % inhib MtbUGM (10 μM)): 100%; inhibition at 50 µM (recombinant MtbUGM; [11]): 100%; inhibition at 100 µM (recombinant MtbUGM; mean of two replicates): 100%; Effect of surfactant on relative inhibitor potency (recombinant MtbUGM; presence and absence of Tween80): insignificant; Aggregates by dynamic light scattering ([7]; 10 μM in PBS buffer): No aggregates were observed; Aggregates by dynamic light scattering ([7]; 100 μM in PBS buffer): No aggregates were observed
7 | Cc1ccc(S(=O)(=O)NC(=O)C(Cc2ccc(I)cc2)Nc2nc(-c3ccc(Cl)c(Cl)c3)cs2)cc1 (centres unmarked) [Compound 7, 2-((4-(3,4-dichlorophenyl)thiazol-2-yl)amino)-3-(4-iodophenyl)-N-tosylpropanamide] | 12.5 µM (≈ 8.4 µg/mL) | 1 ± 1 µM | – | – | – | – | – | 6 ± 0.6 mm | No | 90.5 ± 0.2% | – | – | Mycobacterial growth inhibition (in words) (M. smegmatis [3]; disk diffusion, solid media): inactivity
8 | O=C(NS(=O)(=O)c1ccc(Cl)cc1)C(Cc1ccc(I)cc1)Nc1nc(-c2ccc(Cl)c(Cl)c2)cs1 (centres unmarked) [Compound 8, N-((4-chlorophenyl)sulfonyl)-2-((4-(3,4-dichlorophenyl)thiazol-2-yl)amino)-3-(4-iodophenyl)propanamide] | 12.5 µM (≈ 8.66 µg/mL) | 3 ± 1 µM | – | – | – | – | – | 6.3 ± 0.6 mm | Yes | 100 ± 0% | 250 µM | significantly inhibit | –
9 | O=C(NS(=O)(=O)c1ccc([N+](=O)[O-])cc1)C(Cc1ccc(I)cc1)Nc1nc(-c2ccc(Cl)c(Cl)c2)cs1 (centres unmarked) [Compound 5, 2-((4-(3,4-dichlorophenyl)thiazol-2-yl)amino)-3-(4-iodophenyl)-N-((4-nitrophenyl)sulfonyl)propanamide] | 50 µM (≈ 35.2 µg/mL) | 4 ± 1 µM | – | – | – | – | – | 4.2 ± 0.3 mm | Yes | 93.2 ± 0.1% | 125 µM | significantly inhibit | –
10 | O=C(CC1Sc2nnc(Cc3ccc(Br)cc3)n2N=C1c1ccc(Cl)cc1)NS(=O)(=O)c1ccccc1 (centres unmarked) [Compound 13, 2-(3-(4-bromobenzyl)-6-(4-chlorophenyl)-7H-[1,2,4]triazolo[3,4-b][1,3,4]thiadiazin-7-yl)-N-(phenylsulfonyl)acetamide] | – | – | – | – | – | – | – | – | – | – | 250 µM | significantly inhibit | MIC (M. smegmatis [1]; Table 4): 125 µM (≈ 77.1 µg/mL); inhibition at 50 µM (recombinant MtbUGM; [11]): 92%; inhibition at 100 µM (recombinant MtbUGM; mean of two replicates): 94%; IC50 (recombinant MtbUGM; Table 4): 19 ± 6 µM; Effective inhibitor of C. elegans growth at 250 μM (C. elegans [4]; Table 8): Yes; CeUGM % Inhibition at 10 μM (CeUGM; 10 μM): 91.7 ± 0.5%
